Entries after “also recorded” stand apart in the source; their conditions may differ.

One experiment concerns ADAM17. Briefly: ADAM17 mRNA expression in OECM1 cells. The class given is cell-based, human. Particulars: in combination with S1P. Here is the method: (§1) NF-kB, MMP-2, ADAM-17, and IL6 are implicated in the degradation of the expression of genes involved in the cell basement membrane and extracellular matrix of oral squamous cell carcinoma. Accordingly, the expression of NFkB, MMP2, ADAM17, and IL6 in OECM1 cells following exposure to 0.1 μg/ml PGDHC and 1 μg/ml PGDHC was determined.
(§2) Sphingosine-1-phosphate (S1P) sphingolipid plays an essential role in the survival, migration, and degradation of the basement membrane and extracellular matrix of oral squamous cell carcinoma (Yura et al., Cancers (Basel). 2020 August; 12(8): 2062). To determine whether PGDHC can inhibit such properties, the combined effects of PGDHC and S1P on OECM1 gene expression was tested in vitro.

Another experiment concerns OECM1 cells. Kind of experiment: Scratch wound healing migration assay, OECM1. The class given is cell-based, human. The conditions noted are these: compared to sham control. An excerpt: In vitro assays can be used to evaluate cell migration, including scratch-wound assays and wound healing assays, as in Xu et al., Exp Ther Med. 2023 October; 26(4):460. See also Liang et al., Nat Protoc. 2007;2(2):329-33 and Martinetti & Ronzato, Methods Mol Biol. 2020:2109:225-229. Additionally, the genetic components of cell migration and invasion can be evaluated. For example, MMP-2, ADAM-17 and IL-6 are associated with degradation of the basement membranes and extracellular matrix in OECM-1 cells. See, e.g., Yamada et al., J Cell Mol Med. 2023 May; 27(9):1290-1295.
A scratch wound healing assay was performed according to known methods to assess the effects of PGDHC on the migration of human oral squamous cell carcinoma cells. […] The scratch wound healing assay was validated with a transwell migration assay.
A wound healing migration assay was also conducted to determine the effects of S1P alone or in combination with PGDHC on cell migration. See Yamada et al., J Cell Mol Med. 2023 May; 27(9):1290-1295.

Experiment [1] relates to healthy human gingival epithelial control cells (OBA9). Kind of experiment: Cell viability/proliferation assay (WST-1) in healthy OBA9 cells. The experiment is classed as cell-based. The conditions noted are these: 0.1 μg/ml and 1 μg/ml; WST-1. The text has this: In specific examples, colorimetric assays can be used to assess cellular viability and proliferation of cell cultures, such as MTT, WST-1, and resazurin assays. See, e.g., Präbst et al., Methods Mol Biol. 2017:1601:1-17.
Various cell lines were exposed to PGDHC, including human gingival squamous carcinoma cells (OECM1), tongue squamous carcinoma cells (SCC4, SCC9), and healthy human gingival epithelial control cells (OBA9) in vitro.
LCL521 is a dose-dependent acid ceramidase inhibitor. Comparison of the concentration-dependent effects of an acid ceramidase inhibitor, LCL521 (MedChemExpress®), and the bacterial-isolated a15:0-15:0PE phospholipid on the viability of healthy human epithelial, OBA9, and oral squamous cancer cell lines, OECM1 and SCC9, in vitro was evaluated. […] (FIG. 15A). […] (FIG. 15B).

In a further experiment the test system is Vimentin. Briefly: Western blot of Vimentin in OECM1 cells. The class given is cell-based, human. Particulars: 24 h of treatment. Here is the method:
(§3) To determine the effect of PGDHC on cell markers involved in metastasis, the protein levels of p-STAT3, EMT markers, E-cadherin, N-cadherin, and Vimentin in OECM1 cells following in vitro exposure to PGDHC were determined by Western blot assay.
(Immunoblotting shows a protein as a band on a membrane.)

The next experiment deals with MMP2. Briefly: MMP2 mRNA expression in SCC4 cells. The class given is cell-based, human. Particulars: relative to control cells. Here is the method:
(§4) Expression of these genes was also assessed in human tongue squamous cell carcinoma SCC4 cells.

A further experiment has as its system E-cadherin. Kind of experiment: Western blot of E-cadherin in OECM1 cells. The class given is cell-based, human. The conditions noted are these: 24 h of treatment. Here is the method: as §3
The test system of a further experiment is NFkB. Kind of experiment: NFkB mRNA expression in SCC4 cells. The experiment is classed as cell-based, human. The conditions noted are these: relative to control cells. How it is done:
as §4

Another experiment relates to IL6. Briefly: IL6 mRNA expression in OECM1 cells. The experiment is classed as cell-based, human. How it is done: as §1, §2

In the case of phosphoglycerol dihydroceramide [PGDHC], the “ADAM17 mRNA levels in OECM1 cells exposed to S1P” value in the experiment on ADAM17 is given as “a significant effect was not observed”. The “OECM1 migration, scratch wound healing assay” value with OECM1 cells (1 μg/ml) is “significantly inhibited”. Also, the “S1P-mediated wound-healing migration of OECM1” value in the experiment with OECM1 cells (in combination with S1P) was “dramatically inhibited”. Besides, the “proliferation of healthy control OBA9 cells” value in experiment [1] was “did not have a detectable effect; also recorded: did not have an observable effect”. In addition, the “protein level of Vimentin in OECM1 cells” value in the experiment on Vimentin was “little to no detectable effect”. For the same substance, in the experiment on MMP2, the “MMP2 mRNA in SCC4 cells” value is listed as “significantly diminished”. The “protein level of E-cadherin in OECM1 cells” value with E-cadherin is on record as “little to no detectable effect”. In addition, the “NFkB mRNA in SCC4 cells” value in the experiment on NFkB was “significantly diminished”. For the same substance, the “expression of IL6 mRNA in OECM1 cells” value in the experiment with IL6 (1 μg/ml) was “significantly inhibited”. Also, in the experiment with IL6 (in combination with S1P), the “expression of IL6 mRNA in OECM1 cells exposed to S1P” value is listed as “significantly inhibited”.

These data come from patent US20250312365A1, “METHODS FOR INHIBITION OF SQUAMOUS CARCINOMA CELLS USING CERAMIDE MODULATORS” (The Trustees of Indiana University, priority 2024, published 2025).
